How the values were obtained:
corn [1] = test: Test A pre-/postemergence herbicide test; type: in vivo, Zea mays; conditions: Postemergence
In short: (§1)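 Greenhouse pot test with pre- and postemergence application of surfactant-containing solvent formulations. Postemergence plants were 2–10 cm, one- to two-leaf stage. Response scored visually after ~10 days, 0 (no effect) to 100 (complete control).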

corn [2] = test: Test C pre-/postemergence herbicide test; type: in vivo, Zea mays
In short: (§2)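 Greenhouse pots; formulation = non-phytotoxic solvent mix + surfactant. PRE onto seeds in loam:sand; POST at 1–4 leaves (2–18 cm) in peat moss/vermiculite medium. Read-out: visual % control vs untreated, day 13–15.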

wheat = test: Test A pre-/postemergence herbicide test; type: in vivo, Triticum aestivum; conditions: Postemergence, 125 g ai/ha; visual rating on 0 to 100 scale (0 no effect, 100 complete control), approx. 10 days
In short: as §1

ragweed = test: Test C pre-/postemergence herbicide test; type: in vivo, Ambrosia elatior
In short: as §2

ryegrass, Italian = test: Test C pre-/postemergence herbicide test; type: in vivo, Lolium multiflorum
In short: as §2

johnsongrass = test: Test C pre-/postemergence herbicide test; type: in vivo, Sorghum halepense
In short: as §2

nutsedge, yellow = test: Test C pre-/postemergence herbicide test; type: in vivo, Cyperus esculentus
In short: as §2

ducksalad = test: Test B flooded paddy test; type: in vivo, Heteranthera limosa; conditions: 1000 g ai/ha, Flood; scale of 0 to 100 where 0 is no effect and 100 is complete control
In short: (§3)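 First, plants reach the 2-leaf stage; next, pots are flooded to 3 cm and compound is delivered into the water; finally, after 13 to 15 greenhouse days at constant depth, injury is graded visually from 0 to 100 against controls.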

rice = test: Test B flooded paddy test; type: in vivo, Oryza sativa; conditions: 1000 g ai/ha, Flood; scale of 0 to 100 where 0 is no effect and 100 is complete control
In short: as §3

pigweed = test: Test A pre-/postemergence herbicide test; type: in vivo, Amaranthus retroflexus; conditions: for Plant response rating, Pigweed: 125 g ai/ha; for Pigweed plant response rating: 500 g ai/ha
In short: as §1

morningglory = test: Test C pre-/postemergence herbicide test; type: in vivo, Ipomoea coccinea
In short: as §2

lambsquarters = test: Test C pre-/postemergence herbicide test; type: in vivo, Chenopodium album
In short: as §2

[3] = 125 g ai/ha, visual rating on 0 to 100 scale (0 no effect, 100 complete control), approx. 10 days
[4] = 500 g ai/ha, 0 to 100 scale (0 no effect, 100 complete control)
[5] = Preemergence, 31 g ai/ha, scale 0 to 100, 0 is no effect and 100 is complete control
[6] = Preemergence, 62 g ai/ha, scale 0 to 100 (0 no effect, 100 complete control)
[7] = Preemergence, 125 g ai/ha, scale 0 to 100
[8] = Postemergence, visual rating on 0 to 100 scale (0 no effect, 100 complete control), approx. 10 days
[9] = Preemergence, 0 to 100 scale where 0 is no effect and 100 is complete control
[10] = Preemergence, visual rating on 0 to 100 scale (0 no effect, 100 complete control)
[11] = Postemergence, 31 g ai/ha, scale 0 to 100 (0 no effect, 100 complete control)
[12] = Postemergence, 62 g ai/ha, scale 0 (no effect) to 100 (complete control)
[13] = Postemergence, 125 g ai/ha, scale 0 to 100 (0 no effect, 100 complete control)
[14] = Postemergence, 250 g ai/ha, scale 0 to 100 (0 no effect, 100 complete control)
[15] = Preemergence, 31 g ai/ha, scale 0 to 100

SMILES: O=C1NCC(c2cccc(C(F)(F)F)c2)C1C(=O)Nc1ccc(F)c(F)c1F (stereo not shown) [Compound 345]
- Plant response rating, Corn (corn [1]; [3]): 80
- Plant response rating, Corn (corn [1]; [4]): 90
- Corn plant response rating (corn [2]; [5]): 40
- Corn plant response rating (corn [2]; [6]): 35
- Plant response rating, Corn (corn [2]; [7]): 65
- Plant response rating (scale of 0 to 100), Corn (corn [2]; Preemergence, 250 g ai/ha): 85
- Plant response rating, Wheat (wheat): 50
- Ragweed plant response rating (ragweed; [6]): 40
- Plant response rating, Ragweed (ragweed; [7]): 15
- Ryegrass, Italian plant response rating (ryegrass, Italian; [6]): 45
- Plant response rating, Ryegrass, Italian (ryegrass, Italian; [7]): 10
- Johnsongrass plant response rating (johnsongrass; [5]): 35
- Johnsongrass plant response rating (johnsongrass; [6]): 75
- Plant response rating, Johnsongrass (johnsongrass; [7]): 85
- Plant response rating (scale of 0 to 100), Johnsongrass (johnsongrass; Preemergence, 250 g ai/ha): 90
- Nutsedge, Yellow plant response rating (nutsedge, yellow; [5]): 0
- Nutsedge, Yellow plant response rating (nutsedge, yellow; [6]): 0
- Plant response rating, Nutsedge, Yellow (nutsedge, yellow; [7]): 0
- Plant response rating (scale of 0 to 100), Nutsedge, Yellow (nutsedge, yellow; Preemergence, 250 g ai/ha): 0
- Plant response rating, Ducksalad (ducksalad): 30
- Plant response rating, Rice (rice): 0
- Plant response rating, Pigweed (pigweed; [8]): 20
- Plant response rating, Pigweed (pigweed; [9]): 0
- Pigweed plant response rating (pigweed; [10]): 70
- Morningglory plant response rating (morningglory; [5]): 25
- Morningglory plant response rating (morningglory; [6]): 0
- Plant response rating, Morningglory (morningglory; [7]): 0
- Plant response rating (scale of 0 to 100), Morningglory (morningglory; Preemergence, 250 g ai/ha): 35
- Lambsquarters plant response rating (lambsquarters; [5]): 100
- Lambsquarters plant response rating (lambsquarters; [6]): 75
- Plant response rating, Lambsquarters (lambsquarters; [7]): 85
- Plant response rating (scale of 0 to 100), Lambsquarters (lambsquarters; Preemergence, 250 g ai/ha): 85

SMILES: O=C1NCC(c2ccc(F)c(F)c2)C1C(=O)Nc1ccc(F)c(F)c1F (stereo not shown) [Compound 346]
- Plant response rating, Corn (corn [1]; [3]): 20
- Plant response rating, Corn (corn [1]; [4]): 40
- Plant response rating, Corn (corn [2]; [11]): 0
- Plant response rating, Corn (corn [2]; [12]): 0
- Plant response rating, Corn (corn [2]; [13]): 0
- Plant response rating, Corn (corn [2]; [14]): 0
- Corn plant response rating (corn [2]; [6]): 0
- Plant response rating, Corn (corn [2]; [7]): 0
- Plant response rating (scale of 0 to 100), Corn (corn [2]; Preemergence, 250 g ai/ha): 5
- Plant response rating, Corn (corn [2]; [15]): 0
- Plant response rating, Wheat (wheat): 0
- Plant response rating, Ragweed (ragweed; [11]): 0
- Plant response rating, Ragweed (ragweed; [12]): 0
- Plant response rating, Ragweed (ragweed; [13]): 0
- Plant response rating, Ragweed (ragweed; [14]): 20
- Ragweed plant response rating (ragweed; [6]): 35
- Plant response rating, Ragweed (ragweed; [7]): 35
- Plant response rating, Ragweed (ragweed; [15]): 50
- Plant response rating, Ryegrass, Italian (ryegrass, Italian; [11]): 0
- Plant response rating, Ryegrass, Italian (ryegrass, Italian; [12]): 0
- Plant response rating, Ryegrass, Italian (ryegrass, Italian; [13]): 0
- Plant response rating, Ryegrass, Italian (ryegrass, Italian; [14]): 0
- Ryegrass, Italian plant response rating (ryegrass, Italian; [6]): 10
- Plant response rating, Ryegrass, Italian (ryegrass, Italian; [7]): 5
- Plant response rating, Ryegrass, Italian (ryegrass, Italian; [15]): 0
- Plant response rating, Johnsongrass (johnsongrass; [11]): 100
- Plant response rating, Johnsongrass (johnsongrass; [12]): 0
- Plant response rating, Johnsongrass (johnsongrass; [13]): 0
- Plant response rating, Johnsongrass (johnsongrass; [14]): 0
- Johnsongrass plant response rating (johnsongrass; [6]): 0
- Plant response rating, Johnsongrass (johnsongrass; [7]): 20
- Plant response rating (scale of 0 to 100), Johnsongrass (johnsongrass; Preemergence, 250 g ai/ha): 60
- Plant response rating, Johnsongrass (johnsongrass; [15]): 0
- Plant response rating, Nutsedge, Yellow (nutsedge, yellow; [11]): 0
- Plant response rating, Nutsedge, Yellow (nutsedge, yellow; [12]): 0
- Plant response rating, Nutsedge, Yellow (nutsedge, yellow; [13]): 0
- Plant response rating, Nutsedge, Yellow (nutsedge, yellow; [14]): 5
- Nutsedge, Yellow plant response rating (nutsedge, yellow; [6]): 0
- Plant response rating, Nutsedge, Yellow (nutsedge, yellow; [7]): 0
- Plant response rating (scale of 0 to 100), Nutsedge, Yellow (nutsedge, yellow; Preemergence, 250 g ai/ha): 0
- Plant response rating, Nutsedge, Yellow (nutsedge, yellow; [15]): 0
- Plant response rating, Ducksalad (ducksalad): 100
- Plant response rating, Rice (rice): 0
- Plant response rating, Pigweed (pigweed; [8]): 0
- Plant response rating, Pigweed (pigweed; [9]): 20
- Pigweed plant response rating (pigweed; [10]): 30
- Plant response rating, Morningglory (morningglory; [11]): 0
- Plant response rating, Morningglory (morningglory; [12]): 5
- Plant response rating, Morningglory (morningglory; [13]): 15
- Plant response rating, Morningglory (morningglory; [14]): 5
- Morningglory plant response rating (morningglory; [6]): 0
- Plant response rating, Morningglory (morningglory; [7]): 30
- Plant response rating (scale of 0 to 100), Morningglory (morningglory; Preemergence, 250 g ai/ha): 0
- Plant response rating, Morningglory (morningglory; [15]): 0
- Plant response rating, Lambsquarters (lambsquarters; [11]): 45
- Plant response rating, Lambsquarters (lambsquarters; [12]): 5
- Plant response rating, Lambsquarters (lambsquarters; [13]): 5
- Plant response rating, Lambsquarters (lambsquarters; [14]): 65
- Lambsquarters plant response rating (lambsquarters; [6]): 35
- Plant response rating, Lambsquarters (lambsquarters; [7]): 100
- Plant response rating (scale of 0 to 100), Lambsquarters (lambsquarters; Preemergence, 250 g ai/ha): 100
- Plant response rating, Lambsquarters (lambsquarters; [15]): 35

From patent US10294202B2, “Pyrrolidinones as herbicides” (FMC Corporation, priority 2013, dated 2019)
